# Test results published in patent US20250296953A1, “3,4-THIAZOLO-STEROIDS AND METHODS OF MAKING AND USING THE SAME” (Arkansas State University - Jonesboro, priority 2018, published 2025).
# Where two headings read alike, the source gives them in different places.
# Key:
# SF-295 = assay: NCI 60 one dose screen; assay type: cell-based, human; details: one dose; CNS Cancer; SF-295
# [1] = tested on: 60 different human tumor cell lines; assay: NCI Development Therapeutics Program 60 cell line screen, one dose; assay type: cell-based
# HCT-15 (Colon Cancer) = assay: NCI 60 one dose screen; assay type: cell-based, human
# gliosarcoma (SF-539) = assay: NCI 60 five dose screen; details: Homo sapiens, SF-539
# RPMI-8226 = assay: NCI 60 five dose screen; details: Homo sapiens
# NCI-H522 (NSCLC) = assay: NCI 60 one dose screen; assay type: cell-based, human; details: Non-small Cell Lung Cancer
# SF-539 = assay: NCI 60 one dose screen; assay type: cell-based, human; details: one dose; CNS Cancer; SF-539
# [2] = tested on: 60 different human tumor cell lines; assay: cells
# SR = assay: NCI 60 five dose screen; details: Homo sapiens, SR
smiles,measurement,setting,value
"C[C@]12CCc3sc(Nc4ccc(F)cc4F)nc3C1=CC[C@@H]1[C@@H]2CC[C@]2(C)C(=O)CC[C@@H]12 [IIa.10, (1S,2R,13R,14S,18S)-7-(2,4-difluoroanilino)-2,18-dimethyl-6-thia-8-azapentacyclo[11.7.0.02,10.05,9.014,18]icosa-5(9),7,10-trien-17-one]",Growth Percent,SF-295,50.99%
same,Growth Percent,"[1]; Breast Cancer, BT-549",59.58%
same,Growth Percent,"[1]; Breast Cancer, HS 578T",55.28%
same,Growth Percent,"[1]; Breast Cancer, MCF7",14.62%
same,Growth Percent,"[1]; Breast Cancer, MDA-MB-231/ATCC",76.10%
same,Growth Percent,"[1]; Breast Cancer, MDA-MB-468",23.25%
same,Growth Percent,"[1]; Breast Cancer, T-47D",48.94%
same,Growth Percent,"[1]; CNS Cancer, SF-268",70.67%
same,Growth Percent,"[1]; CNS Cancer, SNB-19",74.13%
same,Growth Percent,"[1]; CNS Cancer, SNB-75",69.43%
same,Growth Percent,"[1]; CNS Cancer, U251",40.73%
same,Growth Percent,"[1]; Colon Cancer, COLO 205",54.33%
same,Growth Percent,"[1]; Colon Cancer, HCC-2998",71.64%
same,Growth Percent,"[1]; Colon Cancer, HCT-116",−23.35%
same,Growth Percent,"[1]; Colon Cancer, HT29",30.06%
same,Growth Percent,"[1]; Colon Cancer, KM12",57.14%
same,Growth Percent,"[1]; Colon Cancer, SW-620",7.16%
same,Growth Percent,"[1]; Leukemia, CCRF-CEM",10.07%
same,Growth Percent,"[1]; Leukemia, HL-60(TB)",21.35%
same,Growth Percent,"[1]; Leukemia, K-562",2.15%
same,Growth Percent,"[1]; Leukemia, MOLT-4",3.63%
same,Growth Percent,"[1]; Leukemia, RPMI-8226",−20.85%
same,Growth Percent,"[1]; Leukemia, SR",.71%
same,Growth Percent,"[1]; Melanoma, LOX IMVI",−49.65%
same,Growth Percent,"[1]; Melanoma, M14",57.76%
same,Growth Percent,"[1]; Melanoma, MALME-3M",69.51%
same,Growth Percent,"[1]; Melanoma, MDA-MB-435",51.52%
same,Growth Percent,"[1]; Melanoma, SK-MEL-2",76.42%
same,Growth Percent,"[1]; Melanoma, SK-MEL-5",76.86%
same,Growth Percent,"[1]; Melanoma, SK-MEL-28",84.36%
same,Growth Percent,"[1]; Melanoma, UACC-62",67.65%
same,Growth Percent,"[1]; Melanoma, UACC-257",71.94%
same,Growth Percent,"[1]; Non-small Cell Lung Cancer, A549/ATCC",61.70%
same,Growth Percent,"[1]; Non-small Cell Lung Cancer, EKVX",78.36%
same,Growth Percent,"[1]; Non-small Cell Lung Cancer, HOP-62",87.08%
same,Growth Percent,"[1]; Non-small Cell Lung Cancer, HOP-92",77.08%
same,Growth Percent,"[1]; Non-small Cell Lung Cancer, NCI-H23",66.21%
same,Growth Percent,"[1]; Non-small Cell Lung Cancer, NCI-H226",84.23%
same,Growth Percent,"[1]; Non-small Cell Lung Cancer, NCI-H322M",84.48%
same,Growth Percent,"[1]; Non-small Cell Lung Cancer, NCI-H460",60.86%
same,Growth Percent,"[1]; Ovarian Cancer, IGROV1",62.11%
same,Growth Percent,"[1]; Ovarian Cancer, NCI/ADR-RES",67.57%
same,Growth Percent,"[1]; Ovarian Cancer, OVCAR-3",−4.15%
same,Growth Percent,"[1]; Ovarian Cancer, OVCAR-4",66.68%
same,Growth Percent,"[1]; Ovarian Cancer, OVCAR-5",91.77%
same,Growth Percent,"[1]; Ovarian Cancer, OVCAR-8",45.20%
same,Growth Percent,"[1]; Ovarian Cancer, SK-OV-3",84.10%
same,Growth Percent,"[1]; Prostate Cancer, DU-145",24.05%
same,Growth Percent,"[1]; Prostate Cancer, PC-3",52.88%
same,Growth Percent,"[1]; Renal Cancer, 786-0",−27.72%
same,Growth Percent,"[1]; Renal Cancer, A498",77.80%
same,Growth Percent,"[1]; Renal Cancer, ACHN",37.67%
same,Growth Percent,"[1]; Renal Cancer, CAKI-1",38.44%
same,Growth Percent,"[1]; Renal Cancer, RXF 393",5.60%
same,Growth Percent,"[1]; Renal Cancer, SN12C",64.13%
same,Growth Percent,"[1]; Renal Cancer, TK-10",50.24%
same,Growth Percent,"[1]; Renal Cancer, UO-31",42.87%
same,Growth Percent,HCT-15 (Colon Cancer),7.76%
same,GI50,gliosarcoma (SF-539),1630 nM
same,GI50,RPMI-8226; RPMI-8226,1880 nM
same,CC50,"RPMI-8226; RPMI-8226, read-out: LC50",> 100000 nM
same,Growth Percent,NCI-H522 (NSCLC),42.56%
same,Growth Percent,SF-539,49.60%
same,CC50,"[2]; 60 cell, read-out: LC50",> 100000 nM
same,CC50,"[2]; A498, read-out: LC50",> 100000 nM
same,CC50,"[2]; A549, read-out: LC50",> 100000 nM
same,GI50,[2]; ACHN,1810 nM
same,CC50,"[2]; BT-549, read-out: LC50",> 100000 nM
same,CC50,"[2]; CAKI-1, read-out: LC50",> 100000 nM
same,GI50,[2]; CCRF-CEM,2640 nM
same,CC50,"[2]; CCRF-CEM, read-out: LC50",> 100000 nM
same,GI50,[2]; DU-145,1980 nM
same,CC50,"[2]; EKVX, read-out: LC50",> 100000 nM
same,GI50,[2]; HCT-15,1700 nM
same,CC50,"[2]; HCT-15, read-out: LC50",> 100000 nM
same,GI50,[2]; HCT-116,1670 nM
same,CC50,"[2]; HL-60, read-out: LC50",> 100000 nM
same,CC50,"[2]; HOP-62, read-out: LC50",> 100000 nM
same,CC50,"[2]; HOP-92, read-out: LC50",> 100000 nM
same,GI50,[2]; HT-29,2240 nM
same,CC50,"[2]; HT-29, read-out: LC50",> 100000 nM
same,CC50,"[2]; Hs-578T, read-out: LC50",> 100000 nM
same,CC50,"[2]; IGROV-1, read-out: LC50",> 100000 nM
same,GI50,[2]; K562,2430 nM
same,CC50,"[2]; K562, read-out: LC50",> 100000 nM
same,GI50,[2]; LOX IMVI,1710 nM
same,CC50,"[2]; M14, read-out: LC50",> 100000 nM
same,CC50,"[2]; MCF7, read-out: LC50",> 100000 nM
same,CC50,"[2]; MDA-MB-231, read-out: LC50",> 100000 nM
same,CC50,"[2]; MDA-MB-435, read-out: LC50",> 100000 nM
same,GI50,[2]; MDA-MB-468,1750 nM
same,GI50,[2]; MOLT-4,2440 nM
same,CC50,"[2]; MOLT-4, read-out: LC50",> 100000 nM
same,CC50,"[2]; Malme-3M, read-out: LC50",> 100000 nM
same,CC50,"[2]; NCI-H23, read-out: LC50",> 100000 nM
same,GI50,[2]; NCI-H226,1830 nM
same,CC50,"[2]; NCI-H322M, read-out: LC50",> 100000 nM
same,CC50,"[2]; NCI-H460, read-out: LC50",> 100000 nM
same,GI50,[2]; NCI-H522,1840 nM
same,CC50,"[2]; NCI/ADR-RES, read-out: LC50",> 100000 nM
same,GI50,[2]; OVCAR-3,1900 nM
same,CC50,"[2]; OVCAR-4, read-out: LC50",> 100000 nM
same,CC50,"[2]; OVCAR-5, read-out: LC50",> 100000 nM
same,GI50,[2]; OVCAR-8,2960 nM
same,CC50,"[2]; OVCAR-8, read-out: LC50",> 100000 nM
same,GI50,[2]; RXF 393,1570 nM
same,CC50,"[2]; SF-268, read-out: LC50",> 100000 nM
same,CC50,"[2]; SK-MEL-2, read-out: LC50",> 100000 nM
same,GI50,[2]; SK-MEL-5,1880 nM
same,CC50,"[2]; SK-OV-3, read-out: LC50",> 100000 nM
same,CC50,"[2]; SN12C, read-out: LC50",> 100000 nM
same,CC50,"[2]; SNB-19, read-out: LC50",> 100000 nM
same,CC50,"[2]; SNB-75, read-out: LC50",> 100000 nM
same,GI50,[2]; SW-620,2400 nM
same,CC50,"[2]; SW-620, read-out: LC50",> 100000 nM
same,GI50,[2]; T47D,2250 nM
same,CC50,"[2]; T47D, read-out: LC50",> 100000 nM
same,GI50,[2]; TK-10,2800 nM
same,CC50,"[2]; TK-10, read-out: LC50",> 100000 nM
same,CC50,"[2]; U-251, read-out: LC50",> 100000 nM
same,CC50,"[2]; UACC-62, read-out: LC50",> 100000 nM
same,CC50,"[2]; UACC-257, read-out: LC50",> 100000 nM
same,GI50,SR,2900 nM
same,CC50,SR; read-out: LC50,> 100000 nM
